Measured values published in patent US20210002725A1, “METHODS FOR THE DIAGNOSIS OF METABOLIC DISORDERS USING EPIMETABOLIC SHIFTERS, MULTIDIMENSIONAL INTRACELLULAR MOLECULES, OR ENVIRONMENTAL INFLUENCES” (Berg LLC, priority 2009, published 2021).
“And” between values parts separate entries of the source, which are not always exact repeats. Equal entries are not always repeated. “Also recorded” adds a separate entry of the source.

Assays:
[1] = tested on: SCC cells; experiment: Real-time PCR Apoptosis Array; type: cell-based; conditions: 100 μM Q10
Source text: The control cells were untreated cells.
RNA was quantified by measuring Optical Density at 260 nm.

[2] = tested on: SKBr3 cells; experiment: Nexin assay for early and late apoptosis (flow cytometry); type: cell-based, human; conditions: 50 μM or 100 μM Q10, 24 hours
Source text: (§1) The 7AAD dye will enter into cells with permeabilized cell membranes; primarily those cells that are in late apoptosis. Annexin-V-PE is a dye that binds to Phosphotidyl serine, which is exposed on the outer surface of the plasma membrane in early apoptotic cells. The Nexin reagent thus can be used to differentiate between different populations of apoptotic cells in a flow cytometer.

[3] = tested on: Bcl2; experiment: Bcl2 level after administration of CoQ-10 in the presence of VEGF; type: cell-based
Source text: The term “Multidimensional Intracellular Molecule (MIM)”, is an isolated version or synthetically produced version of an endogenous molecule that is naturally produced by the body and/or is present in at least one cell of a human. A MIM is characterized by one or more, two or more, three or more, or all of the following functions. MIMs are capable of entering a cell, and the entry into the cell includes complete or partial entry into the cell, as long as the biologically active portion of the molecule wholly enters the cell. MIMs are capable of inducing a signal transduction and/or gene expression mechanism within a cell. MIMs are multidimensional in that the molecules have both a therapeutic and a carrier, e.g., drug delivery, effect. MIMs also are multidimensional in that the molecules act one way in a disease state and a different way in a normal state. […] Preferably, MIMs selectively act in cells of a disease state, and have substantially no effect in (matching) cells of a normal state. Preferably, MIMs selectively renders cells of a disease state closer in phenotype, metabolic state, genotype, mRNA/protein expression level, etc. to (matching) cells of a normal state.

[4] = tested on: MCF-7 cells; experiment: Nexin assay for early and late apoptosis (flow cytometry); type: cell-based; conditions: 50 μM and 100 μM Q10, 24 hours
Source text: as §1

[5] = tested on: PaCa2 cells; experiment: as above; type: cell-based; conditions: 50 μM and 100 μM Q10, 24 hours
Source text: as §1

[6] = tested on: HepG2 cells; experiment: as above; type: cell-based; conditions: 50 μM Q10, 24 hours
Source text: as §1

[7] = tested on: SK-MEL-28 mitochondria; experiment: LC-MS/MS quantification of Q10 and Q10H2 in mitochondrial enriched samples; type: cell-based; conditions: for Peak Area Q10: 20% injection
Method: Ten μl of each sample was injected.

[8] = tested on: key proteins; experiment: Summary of key proteins modulated by Q10

Which results are given for `COC1=C(OC)C(=O)C(C/C=C(\C)CC/C=C(\C)CC/C=C(\C)CC/C=C(\C)CC/C=C(\C)CC/C=C(\C)CC/C=C(\C)CC/C=C(\C)CC/C=C(\C)CCC=C(C)C)=C(C)C1=O` [Q10, Coenzyme Q10]?
Regulation (mRNA) at 6 hours [1]: Down regulated at 6; Regulation (mRNA) at 24 hours ([1]; gene BAX): Up regulated at 24 hours.; Regulation (mRNA) at 24 hours ([1]; gene BCL2L1): hours and then up; Regulation (mRNA) at 24 hours ([1]; gene BNIP3): Down regulated at 24; early and late apoptosis [2]: did not show any significant increases of early and late apoptosis; level of Bcl2 ([3]; melanoma cell, in the presence of VEGF): decreased level of Bcl2; levels of Bcl2 ([3]; normal fibroblast, co-administration with VEGF): no effect; apoptotic population [4]: increase only in early apoptotic population; increase in early and late apoptotic cells [5]: 5-10 % of gated cells; increase of gated population in late apoptotic and early apoptotic stages [6]: about 20%; increase in mitochondrial Q10 levels ([7]; 100 μM Q10, 19 hours, vs untreated): ~3 fold; increase in mitochondrial Q10H2 levels ([7]; 100 μM Q10, 48 hour sample, near detection limit): 3 fold; Peak Area Q10 ([7]; 100 μM Q10 in the media, 6 hr): 25427; Peak Area Q10 ([7]; 100 μM Q10 in the media, 19 hr): 59164; Q10H2 (reduced form) in mitochondrial enriched sample ([7]; 100 μM Q10 in the media, 48 hr): 0.28 ng/Sample; Peak Area Q10 ([7]; 100 μM Q10 in the media, 48 hr): 164496; form of Q10 in mitochondria (oxidized vs reduced) ([7]; exogenous addition of Q10 to the media): maintained in the supplied oxidized form; Key proteins modulated: Apoptotic response [8]: Bcl-xl, Bcl-xS, BNIP-2, Bcl-2, Birc6,; also recorded: Bcl-2-L11 (Bim), XIAP, BRAF, Bax,; also recorded: c-Jun, Bmf, PUMA, cMyc; Key proteins modulated: Biosynthetic pathway [8]: COQ1, COQ3, COQ6, prenyltransferase, and 4-hydroxybenzoate; Key proteins modulated: Oxidative phosphorylation metabolism [8]: Cytochrome c, complex I, complex II,; also recorded: complex III, complex IV,; Key proteins modulated: Pentose Phosphate Pathway [8]: transaldolase 1; Key proteins modulated: Transcription factors [8]: HNF4alpha
